In PubChem BioAssay (NCI):
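These data come from cells grown in 96-well plates and exposed to compound for 48 hours at five concentrations. TGI marks complete inhibition of growth.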

How the values were obtained:
Assay in all cases: NCI-60 cell line screen, 48 h
SF-539 CNS = tested on: SF-539 CNS
BT-549 breast = tested on: BT-549 breast
MCF7 breast = tested on: MCF7 breast
SNB-75 CNS = tested on: SNB-75 CNS
A549 NSCLC = tested on: A549 NSCLC
HOP-92 NSCLC = tested on: HOP-92 NSCLC
HCC-2998 colon = tested on: HCC-2998 colon
MDA-N = tested on: MDA-N
UACC-257 melanoma = tested on: UACC-257 melanoma
IGROV1 ovarian = tested on: IGROV1 ovarian
OVCAR-4 ovarian = tested on: OVCAR-4 ovarian
HCT-15 colon = tested on: HCT-15 colon
HCT-116 colon = tested on: HCT-116 colon
M14 melanoma = tested on: M14 melanoma
HOP-62 NSCLC = tested on: HOP-62 NSCLC
SK-OV-3 ovarian = tested on: SK-OV-3 ovarian
SW-620 colon = tested on: SW-620 colon
OVCAR-5 ovarian = tested on: OVCAR-5 ovarian
MOLT-4 leukemia = tested on: MOLT-4 leukemia
HS 578T breast = tested on: HS 578T breast
RXF 393 renal = tested on: RXF 393 renal
HL-60(TB) leukemia = tested on: HL-60(TB) leukemia
ACHN renal = tested on: ACHN renal
UO-31 renal = tested on: UO-31 renal
SR leukemia = tested on: SR leukemia
RPMI-8226 leukemia = tested on: RPMI-8226 leukemia
OVCAR-8 ovarian = tested on: OVCAR-8 ovarian
SNB-19 CNS = tested on: SNB-19 CNS
UACC-62 melanoma = tested on: UACC-62 melanoma
MDA-MB-435 = tested on: MDA-MB-435
NCI-H460 lung = tested on: NCI-H460 lung
SF-295 CNS = tested on: SF-295 CNS
CCRF-CEM leukemia = tested on: CCRF-CEM leukemia
SN12C renal = tested on: SN12C renal
K-562 leukemia = tested on: K-562 leukemia
SK-MEL-2 melanoma = tested on: SK-MEL-2 melanoma
HT29 colon = tested on: HT29 colon
TK-10 renal = tested on: TK-10 renal
NCI-H226 lung = tested on: NCI-H226 lung
U251 CNS = tested on: U251 CNS
T-47D breast = tested on: T-47D breast
SK-MEL-5 melanoma = tested on: SK-MEL-5 melanoma
LOX IMVI melanoma = tested on: LOX IMVI melanoma
NCI/ADR-RES ovarian = tested on: NCI/ADR-RES ovarian
COLO 205 colon = tested on: COLO 205 colon
KM12 colon = tested on: KM12 colon
MDA-MB-231 breast = tested on: MDA-MB-231 breast
NCI-H522 lung = tested on: NCI-H522 lung
A498 renal = tested on: A498 renal
786-0 renal = tested on: 786-0 renal
SK-MEL-28 melanoma = tested on: SK-MEL-28 melanoma
CAKI-1 renal = tested on: CAKI-1 renal
MALME-3M melanoma = tested on: MALME-3M melanoma
DU-145 prostate = tested on: DU-145 prostate
NCI-H23 lung = tested on: NCI-H23 lung
OVCAR-3 ovarian = tested on: OVCAR-3 ovarian
EKVX NSCLC = tested on: EKVX NSCLC
PC-3 prostate = tested on: PC-3 prostate
SF-268 CNS = tested on: SF-268 CNS

SMILES: Cc1cccc2c1CC(C1OC(=O)c3ccccc31)C2=O (stereo not drawn)
- TGI (SF-539 CNS): > 100 µM
- TGI (BT-549 breast): > 100 µM
- TGI (MCF7 breast): > 100 µM
- TGI (SNB-75 CNS): > 100 µM
- TGI (A549 NSCLC): > 100 µM
- TGI (HOP-92 NSCLC): > 100 µM
- TGI (HCC-2998 colon): > 100 µM
- TGI (MDA-N): > 100 µM
- TGI (UACC-257 melanoma): > 100 µM
- TGI (IGROV1 ovarian): > 100 µM
- TGI (OVCAR-4 ovarian): > 100 µM
- TGI (HCT-15 colon): > 100 µM
- TGI (HCT-116 colon): > 100 µM
- TGI (M14 melanoma): > 100 µM
- TGI (HOP-62 NSCLC): > 100 µM
- TGI (SK-OV-3 ovarian): > 100 µM
- TGI (SW-620 colon): > 100 µM
- TGI (OVCAR-5 ovarian): > 100 µM
- TGI (MOLT-4 leukemia): > 100 µM
- TGI (HS 578T breast): > 100 µM
- TGI (RXF 393 renal): > 100 µM
- TGI (HL-60(TB) leukemia): > 100 µM
- TGI (ACHN renal): > 100 µM
- TGI (UO-31 renal): > 100 µM
- TGI (SR leukemia): > 100 µM
- TGI (RPMI-8226 leukemia): > 100 µM
- TGI (OVCAR-8 ovarian): > 100 µM
- TGI (SNB-19 CNS): > 100 µM
- TGI (UACC-62 melanoma): > 100 µM
- TGI (MDA-MB-435): > 100 µM
- TGI (NCI-H460 lung): > 100 µM
- TGI (SF-295 CNS): > 100 µM
- TGI (CCRF-CEM leukemia): > 100 µM
- TGI (SN12C renal): > 100 µM
- TGI (K-562 leukemia): > 100 µM
- TGI (SK-MEL-2 melanoma): > 100 µM
- TGI (HT29 colon): > 100 µM
- TGI (TK-10 renal): > 100 µM
- TGI (NCI-H226 lung): > 100 µM
- TGI (U251 CNS): > 100 µM
- TGI (T-47D breast): > 100 µM
- TGI (SK-MEL-5 melanoma): > 100 µM
- TGI (LOX IMVI melanoma): > 100 µM
- TGI (NCI/ADR-RES ovarian): > 100 µM
- TGI (COLO 205 colon): > 100 µM
- TGI (KM12 colon): > 100 µM
- TGI (MDA-MB-231 breast): > 100 µM
- TGI (NCI-H522 lung): > 100 µM
- TGI (A498 renal): > 100 µM
- TGI (786-0 renal): > 100 µM
- TGI (SK-MEL-28 melanoma): > 100 µM
- TGI (CAKI-1 renal): > 100 µM
- TGI (MALME-3M melanoma): > 100 µM
- TGI (DU-145 prostate): > 100 µM
- TGI (NCI-H23 lung): > 100 µM
- TGI (OVCAR-3 ovarian): > 100 µM
- TGI (EKVX NSCLC): > 100 µM
- TGI (PC-3 prostate): > 100 µM
- TGI (SF-268 CNS): > 100 µM

SMILES: COc1ccc(N2C(=O)C3c4[nH]c5ccccc5c4C4CCC(c5ccccc5)CC4C3C2=O)cc1 (stereo not drawn)
- TGI (SF-539 CNS): 7.4 µM
- TGI (BT-549 breast): > 58.3 µM
- TGI (MCF7 breast): > 100 µM
- TGI (SNB-75 CNS): 19.1 µM
- TGI (A549 NSCLC): > 78.1 µM
- TGI (HOP-92 NSCLC): 61.8 µM
- TGI (HCC-2998 colon): > 44.9 µM
- TGI (MDA-N): > 81.5 µM
- TGI (UACC-257 melanoma): 97.5 µM
- TGI (IGROV1 ovarian): 68.8 µM
- TGI (OVCAR-4 ovarian): > 49.5 µM
- TGI (HCT-15 colon): > 100 µM
- TGI (HCT-116 colon): > 100 µM
- TGI (M14 melanoma): > 94.4 µM
- TGI (HOP-62 NSCLC): 27.7 µM
- TGI (SK-OV-3 ovarian): 54.8 µM
- TGI (SW-620 colon): > 100 µM
- TGI (OVCAR-5 ovarian): > 100 µM
- TGI (MOLT-4 leukemia): > 100 µM
- TGI (HS 578T breast): 21.5 µM
- TGI (RXF 393 renal): 25.6 µM
- TGI (HL-60(TB) leukemia): > 34.8 µM
- TGI (ACHN renal): 47.9 µM
- TGI (UO-31 renal): > 88.2 µM
- TGI (SR leukemia): 7.15 µM
- TGI (RPMI-8226 leukemia): 78.6 µM
- TGI (OVCAR-8 ovarian): 37.2 µM
- TGI (SNB-19 CNS): 43.2 µM
- TGI (UACC-62 melanoma): 50.3 µM
- TGI (MDA-MB-435): > 100 µM
- TGI (NCI-H460 lung): > 43.1 µM
- TGI (SF-295 CNS): > 51.1 µM
- TGI (CCRF-CEM leukemia): 53 µM
- TGI (SN12C renal): > 68.4 µM
- TGI (K-562 leukemia): > 41.3 µM
- TGI (SK-MEL-2 melanoma): 53.2 µM
- TGI (HT29 colon): > 100 µM
- TGI (TK-10 renal): 35.5 µM
- TGI (NCI-H226 lung): > 96.7 µM
- TGI (U251 CNS): 21.1 µM
- TGI (T-47D breast): > 100 µM
- TGI (SK-MEL-5 melanoma): > 87.8 µM
- TGI (LOX IMVI melanoma): > 54.1 µM
- TGI (NCI/ADR-RES ovarian): > 59.3 µM
- TGI (COLO 205 colon): > 78.2 µM
- TGI (KM12 colon): > 100 µM
- TGI (MDA-MB-231 breast): 41.5 µM
- TGI (NCI-H522 lung): > 44 µM
- TGI (A498 renal): 50.6 µM
- TGI (786-0 renal): > 34.9 µM
- TGI (SK-MEL-28 melanoma): > 96.2 µM
- TGI (CAKI-1 renal): 36.1 µM
- TGI (MALME-3M melanoma): 18.3 µM
- TGI (DU-145 prostate): > 100 µM
- TGI (NCI-H23 lung): > 51.7 µM
- TGI (OVCAR-3 ovarian): > 100 µM
- TGI (EKVX NSCLC): 55.6 µM
- TGI (PC-3 prostate): > 78.5 µM
- TGI (SF-268 CNS): 43.8 µM
